ChEMBL document CHEMBL1132913, “Conformationally-restricted ligands for the histamine H1 receptor” (Bioorg Med Chem Lett, 2000)
The source made the active and inactive calls. No cut-off for these calls is given here.

Tests used:
[1] = species: Mus musculus; assay: Ability of compound to protect mice against a lethal dose of 48/80; No activity; format: functional, organism-based
[2] = molecular target: T1, Histamine H1 receptor (Cavia porcellus, UniProt P31389); assay: In vitro antagonistic activity at the Histamine H1 receptor in guinea pig ileum; format: functional, tissue-based
[3] = test system: Mus musculus; assay: In vivo activity of compound at 40 mg/kg in 48/80 challenge expressed as number of mice surviving for more than 240 min; 1/2; format: functional; conditions: 4 h
[4] = test system: Mus musculus; assay: In vivo activity of compound at 10 mg/kg in 48/80 challenge expressed as number of mice surviving for more than 240 min; 0/2; format: functional; conditions: 4 h
[5] = Partition coefficient (logP); format: physicochemical; conditions: octanol/water
[6] = test system: Mus musculus; assay: In vivo activity of compound at 40 mg/kg in 48/80 challenge expressed as number of mice surviving for more than 240 min; 2/2; format: functional; conditions: 4 h
[7] = test system: Mus musculus; assay: In vivo activity of compound at 10 mg/kg in 48/80 challenge expressed as number of mice surviving for more than 240 min; 1/2; format: functional; conditions: 4 h
[8] = species: Mus musculus; assay: Compound was tested for protection against 48/80 challenge in mice; No activity with both mice dying at 36 min; format: functional, organism-based
[9] = molecular target: T1, Histamine H1 receptor; assay: In vitro antagonistic activity at the Histamine H1 receptor in guinea pig ileum; No inhibition; format: functional, tissue-based
[10] = species: Mus musculus; assay: Effect of compound in the […] challenge in mice; No activity; format: functional, organism-based
[11] = test system: Mus musculus; assay: In vivo activity of compound at 40 mg/kg in 48/80 challenge expressed as number of mice surviving for more than 240 min; 0/2; format: functional; conditions: 4 h
[12] = test system: Mus musculus; assay: Effective dose (in vivo) by administering the compound in mice was determined; format: functional
[13] = species: Mus musculus; assay: Effective dose of compound in the […] challenge in mice.; format: functional

T1 sequence (P31389 whole entry): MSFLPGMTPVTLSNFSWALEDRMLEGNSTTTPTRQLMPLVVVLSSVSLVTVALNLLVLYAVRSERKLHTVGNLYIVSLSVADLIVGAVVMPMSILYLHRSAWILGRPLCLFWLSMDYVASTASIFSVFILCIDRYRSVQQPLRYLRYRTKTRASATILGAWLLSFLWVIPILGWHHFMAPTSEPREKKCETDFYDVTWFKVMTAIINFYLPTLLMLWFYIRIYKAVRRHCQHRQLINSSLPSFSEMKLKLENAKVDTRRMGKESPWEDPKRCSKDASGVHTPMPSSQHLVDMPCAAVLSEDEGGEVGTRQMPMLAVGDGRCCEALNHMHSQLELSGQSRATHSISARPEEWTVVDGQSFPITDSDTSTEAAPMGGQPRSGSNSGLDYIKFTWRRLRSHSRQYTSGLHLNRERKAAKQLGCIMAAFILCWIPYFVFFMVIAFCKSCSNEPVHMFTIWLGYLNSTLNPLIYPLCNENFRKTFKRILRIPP

SMILES	IC50 [2] [nM]	survival at 10 mg/kg [4] [%]	logP ([5]; read-out: logP)	survival at 40 mg/kg [11] [%]	other results
CCN1CC[C@@](O)(c2ccccc2)[C@H](C(=O)c2ccccc2)C1	23	–	–	–	Activity [1]: inactive
c1ccc(CCN2CCC3C(=C(c4ccccc4)c4ccccc43)C2)cc1 (centres undefined)	–	0	7.43	–	survival at 40 mg/kg [3]: 50%
CCN1CCC2C(=C(c3ccccc3)c3ccccc32)C1 (centres undefined)	–	–	5.76	–	survival at 40 mg/kg [6]: 100%
CN1CCC2C(=C(c3ccccc3)c3ccccc32)C1 (centres undefined)	28	–	5.23	–	survival at 10 mg/kg [7]: 50%; survival at 40 mg/kg [6]: 100%
CN1CC[C@H]2c3ccccc3[C@@H](c3ccccc3)[C@H]2C1	–	–	–	–	Activity [8]: inactive
CCN1CC=C2C(=C(c3ccccc3)c3ccccc32)C1	–	–	–	–	IC50 [9]: Not Active
CCN1CCC2=C(C1)C(c1ccccc1)c1ccccc12 (centres undefined)	17	0	4.92	–	survival at 40 mg/kg [3]: 50%
CN1CCC2=C(C1)C(c1ccccc1)c1ccccc12 (centres undefined) [PHENINDAMINE]	36	–	–	–	–
CCc1ccc([C@@H]2c3cc(CC)ccc3[C@@H]3CCN(C)C[C@H]23)cc1	–	–	–	–	ED50 [10]: inactive
c1ccc(CCN2CCC3=C(C2)C(c2ccccc2)c2ccccc23)cc1 (centres undefined)	–	0	6.59	0	–
CN1CC[C@@](O)(c2ccccc2)[C@H](C(=O)c2ccccc2)C1	26	–	–	–	Activity [1]: inactive
CN1CC=C2C(=C(c3ccccc3)c3ccccc32)C1	220	0	4.94	0	–
c1ccc(CN2CCC3=C(C2)C(c2ccccc2)c2ccccc23)cc1 (centres undefined)	470	0	6.02	0	–
CCc1ccc(C2C3=C(CCN(C)C3)c3ccc(CC)cc32)cc1 (centres undefined)	–	0	–	0	–
C1=C2C(=C(c3ccccc3)c3ccccc32)CNC1	53	–	4.41	50	survival at 40 mg/kg [3]: 50%; ED50 [12]: 40 mg/kg
c1ccc(CN2CCC3C(=C(c4ccccc4)c4ccccc43)C2)cc1 (centres undefined)	10.8	0	–	0	logP [5]: 7.03
CN1CC[C@H]2c3ccccc3C(c3ccccc3)[C@H]2C1 (single isomer, unassigned)	–	–	–	–	ED50 [13]: 40 mg/kg
